Assay results as given in BindingDB's records for doi:10.1021/jm0611051 (Gsk, 2007).

Target: Angiopoietin-1 receptor (Homo sapiens, UniProt Q02763)
Test: Homogeneous Time-Resolved Fluorescence (HTRF) Enzyme Assay
Experimental: The assay uses purified GST-Tie-2 or GST-VEGFR2 interacting with biotinylated peptide substrates. HTRF is based on the proximity of europium cryptate (donor fluorophore)-labeled antiphosphotyrosine and streptavidin labeled with APC (allophycocyanin), which have been brought together by a binding reaction. […] The IC50 values for inhibitors were determined by a four-parameter sigmoidal curve fit.

Sequence of Angiopoietin-1 receptor (Q02763 whole entry): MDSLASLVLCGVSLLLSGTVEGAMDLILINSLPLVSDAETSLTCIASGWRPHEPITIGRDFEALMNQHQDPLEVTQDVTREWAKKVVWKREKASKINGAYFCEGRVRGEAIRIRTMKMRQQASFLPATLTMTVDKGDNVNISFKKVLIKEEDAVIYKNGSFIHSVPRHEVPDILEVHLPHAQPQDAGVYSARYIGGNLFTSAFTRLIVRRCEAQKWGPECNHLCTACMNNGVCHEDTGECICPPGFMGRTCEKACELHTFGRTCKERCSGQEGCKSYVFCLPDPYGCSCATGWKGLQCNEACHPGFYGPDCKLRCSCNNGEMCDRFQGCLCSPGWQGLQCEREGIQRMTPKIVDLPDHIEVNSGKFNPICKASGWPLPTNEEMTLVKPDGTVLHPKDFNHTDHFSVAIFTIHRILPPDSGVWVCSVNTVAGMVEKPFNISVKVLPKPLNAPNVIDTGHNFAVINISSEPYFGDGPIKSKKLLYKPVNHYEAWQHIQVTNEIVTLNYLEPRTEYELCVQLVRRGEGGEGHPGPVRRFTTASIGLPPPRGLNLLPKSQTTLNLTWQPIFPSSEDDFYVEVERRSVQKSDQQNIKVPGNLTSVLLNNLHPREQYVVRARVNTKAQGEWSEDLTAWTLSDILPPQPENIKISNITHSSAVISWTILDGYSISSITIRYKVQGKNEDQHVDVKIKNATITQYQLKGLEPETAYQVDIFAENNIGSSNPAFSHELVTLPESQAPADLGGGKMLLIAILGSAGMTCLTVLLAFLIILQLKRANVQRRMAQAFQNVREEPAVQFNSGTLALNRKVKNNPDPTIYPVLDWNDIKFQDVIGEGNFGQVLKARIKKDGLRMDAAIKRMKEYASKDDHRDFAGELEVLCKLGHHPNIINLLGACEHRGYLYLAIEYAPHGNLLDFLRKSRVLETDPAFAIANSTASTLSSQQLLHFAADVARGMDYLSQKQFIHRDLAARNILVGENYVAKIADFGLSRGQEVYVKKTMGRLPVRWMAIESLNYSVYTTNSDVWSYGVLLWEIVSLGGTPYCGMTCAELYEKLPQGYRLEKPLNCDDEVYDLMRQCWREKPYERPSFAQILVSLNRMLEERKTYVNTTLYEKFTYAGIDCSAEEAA

IC50: 1300 nM
SMILES: O=C(Nc1ccc(Oc2ccc3nc(NC(=O)c4ccccc4-n4cccc4)[nH]c3c2)cc1)Nc1cc(C(F)(F)F)ccc1F [N-(6-(4-((2-Fluoro-5(trifluoromethyl)phenyl)aminocarbonylamino)phenoxy)-1H-benzimidazol-2-yl)-2-(1H-pyrrol-1-yl)benzamide]
